Two molecules from ChEMBL document CHEMBL1201862, “PubChem BioAssay data set” (2004) can be followed below.

Activity calls are given as the source filed them.

Assay [1] can be described thus: blockers of HIV-1 envelope-mediated cell-cell fusion – cherry-pick, dose response (AID 652057). The format is functional, cell-based.
Assay [2] is described as follows: blockers of HIV-1 ZM109 envelope-driven cell-cell fusion – HeLa effector, CEM target cells, luciferase, cherry-pick, dose response (AID 652058).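 Also: luciferase signal from HIV-1 Env mediated cell-cell fusion of effector and target cells.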 Type of assay: functional, cell-based.
Assay [3] concerns the target T1, Probable nicotinate-nucleotide adenylyltransferase (Staphylococcus aureus (strain N315), UniProt P65502). The format is functional, Staphylococcus aureus subsp. aureus N315. Conditions: read-out: IC50_Mean.
Assay [4] is described as follows: HIV-1 AD8 envelope cell-cell fusion blockers – cherry-pick, dose response (AID 652062).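 Also: luciferase signal from cell-cell fusion driven by HIV-1 clade B AD8 Env; potency is for inhibitors of fusion seen as a drop in luminescence.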 The format is functional, cell-based.
Assay [5] is described as follows: viability loss in CEM21 cells – cell-based, plate reader, dry powder, cytotoxicity control, dose response (AID 687026). Type of assay: functional.
In assay [6] the target is T1, Probable nicotinate-nucleotide adenylyltransferase. Type of assay: functional, Staphylococcus aureus subsp. aureus N315.
Assay [7] in a line: inhibition of Env-driven cell fusion – HIV entry, plate reader, dry powder, dose response (AID 687023). Type of assay: functional, cell-based.
The target in a further assay is T2, Hexokinase HKDC1 (Homo sapiens, UniProt Q2TB90).
T2 sequence (Q2TB90 whole entry): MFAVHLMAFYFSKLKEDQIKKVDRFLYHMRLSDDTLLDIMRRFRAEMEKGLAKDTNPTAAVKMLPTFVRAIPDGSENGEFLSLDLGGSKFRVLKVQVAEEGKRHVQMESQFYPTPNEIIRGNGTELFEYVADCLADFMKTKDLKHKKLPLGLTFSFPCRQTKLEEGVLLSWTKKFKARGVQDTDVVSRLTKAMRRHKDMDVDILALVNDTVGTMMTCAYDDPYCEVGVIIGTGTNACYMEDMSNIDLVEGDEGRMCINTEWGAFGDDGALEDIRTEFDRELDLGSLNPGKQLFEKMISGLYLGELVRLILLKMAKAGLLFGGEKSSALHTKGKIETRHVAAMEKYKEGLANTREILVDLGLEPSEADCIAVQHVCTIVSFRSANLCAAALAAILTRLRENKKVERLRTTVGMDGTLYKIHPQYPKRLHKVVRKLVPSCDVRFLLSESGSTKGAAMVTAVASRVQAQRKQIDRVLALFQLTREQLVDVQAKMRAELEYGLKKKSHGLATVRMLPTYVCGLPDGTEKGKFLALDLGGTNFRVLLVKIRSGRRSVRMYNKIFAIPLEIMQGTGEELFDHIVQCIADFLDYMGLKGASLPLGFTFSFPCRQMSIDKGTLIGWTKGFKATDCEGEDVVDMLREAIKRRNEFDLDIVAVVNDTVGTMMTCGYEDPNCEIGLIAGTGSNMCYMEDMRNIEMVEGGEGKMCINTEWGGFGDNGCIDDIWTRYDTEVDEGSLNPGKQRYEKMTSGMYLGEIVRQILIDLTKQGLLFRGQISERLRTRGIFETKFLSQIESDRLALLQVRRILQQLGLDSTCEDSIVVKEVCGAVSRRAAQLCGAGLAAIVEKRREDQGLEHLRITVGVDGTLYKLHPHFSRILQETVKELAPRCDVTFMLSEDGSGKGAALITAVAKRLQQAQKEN
In words: activation of HKDC1 glucose phosphorylation – biochemical, W721R variant, dose response (AID 504730). Type of assay: functional.

In a further assay the target is Hexokinase-1 (Homo sapiens, UniProt P19367). In words: HK1 enzyme activation by HKDC1 hits – biochemical, selectivity assay for HKDC1 activator project, dose response (AID 504762). The format is functional.
Hexokinase-1, sequence (P19367 whole entry): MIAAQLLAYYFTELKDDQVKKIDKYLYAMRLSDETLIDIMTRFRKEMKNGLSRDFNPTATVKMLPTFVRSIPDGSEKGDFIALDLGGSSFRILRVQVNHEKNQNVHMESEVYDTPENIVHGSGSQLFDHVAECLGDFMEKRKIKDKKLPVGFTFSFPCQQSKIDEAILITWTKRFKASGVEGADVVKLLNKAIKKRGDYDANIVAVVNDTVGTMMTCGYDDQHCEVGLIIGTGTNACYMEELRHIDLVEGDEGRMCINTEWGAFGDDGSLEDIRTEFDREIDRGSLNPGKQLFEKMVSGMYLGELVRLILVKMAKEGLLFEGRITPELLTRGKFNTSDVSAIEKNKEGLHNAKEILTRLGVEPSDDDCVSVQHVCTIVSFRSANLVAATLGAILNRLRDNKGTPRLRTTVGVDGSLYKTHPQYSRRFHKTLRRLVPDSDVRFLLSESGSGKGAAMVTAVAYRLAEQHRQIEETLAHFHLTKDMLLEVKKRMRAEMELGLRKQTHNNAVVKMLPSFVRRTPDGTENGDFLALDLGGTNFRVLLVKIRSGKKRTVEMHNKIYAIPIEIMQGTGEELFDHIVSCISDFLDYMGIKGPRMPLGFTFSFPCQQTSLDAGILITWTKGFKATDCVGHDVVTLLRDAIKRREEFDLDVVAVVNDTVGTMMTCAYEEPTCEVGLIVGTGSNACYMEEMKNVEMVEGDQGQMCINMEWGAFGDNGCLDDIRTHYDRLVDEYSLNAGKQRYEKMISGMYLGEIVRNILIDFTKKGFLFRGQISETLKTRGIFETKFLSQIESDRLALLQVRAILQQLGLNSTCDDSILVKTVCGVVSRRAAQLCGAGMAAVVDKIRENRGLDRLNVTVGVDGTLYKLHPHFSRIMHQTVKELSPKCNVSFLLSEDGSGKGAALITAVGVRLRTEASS
The subject of assay [8] is Streptococcus sp. 'group A'. The experiment in a line: Streptococcus pyogenes SK(-)GAS viability under kanamycin – luminescence, BacTiterGlo, confirmation, counter-screen for streptokinase expression inhibitor project, dose response (AID 1900). The format is functional, organism-based.
Assay [9] is described as follows: fluconazole-exposed Candida albicans growth modulators – fluorescence, retest, confirmation (AID 2467). The format is functional, cell-based.
Assay [10] is described as follows: NIH-3T3 fibroblast cytotoxicity, dose response, cytotoxicity control, cell-based, fluorescence, Alamar Blue, secondary assay (AID 2327).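 Also: NIH-3T3 mouse fibroblasts cultured with fluconazole at 8 µg/mL.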 Type of assay: functional.
Another assay deals with Streptococcus. The experiment in a line: GAS UMAA2166 growth inhibition – luminescence, BacTiterGlo, counter-screen for streptokinase expression inhibitor project, dose response (AID 1915).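 Also: potency for reduction of bacterial viability or growth.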 Type of assay: functional, organism-based.
In the next assay the test system is INS1. In words: INS-1E survival protection against cytokine death – cell-based, luminescence, retest, dose response (AID 449756).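 Also: cell death triggered by IL-1 beta plus TNF-alpha plus IFN-gamma mixture; protective hits raise ATP signal compared with cytokine alone wells.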 Conditions: Rattus norvegicus. Type of assay: functional.
Assay [11] can be described thus: Intein inhibitors as potential Tuberculosis drugs, a cytotoxicity screen. [Related pubchem assays (depositor defined):AID2221, AID2223, AID434968, AID435010, AID449749, AID449750, AID489010]. Type of assay: functional.
Another assay has as its target T3, Protein RecA (Mycobacterium tuberculosis, UniProt P9WHJ3).
T3 sequence (P9WHJ3 whole entry): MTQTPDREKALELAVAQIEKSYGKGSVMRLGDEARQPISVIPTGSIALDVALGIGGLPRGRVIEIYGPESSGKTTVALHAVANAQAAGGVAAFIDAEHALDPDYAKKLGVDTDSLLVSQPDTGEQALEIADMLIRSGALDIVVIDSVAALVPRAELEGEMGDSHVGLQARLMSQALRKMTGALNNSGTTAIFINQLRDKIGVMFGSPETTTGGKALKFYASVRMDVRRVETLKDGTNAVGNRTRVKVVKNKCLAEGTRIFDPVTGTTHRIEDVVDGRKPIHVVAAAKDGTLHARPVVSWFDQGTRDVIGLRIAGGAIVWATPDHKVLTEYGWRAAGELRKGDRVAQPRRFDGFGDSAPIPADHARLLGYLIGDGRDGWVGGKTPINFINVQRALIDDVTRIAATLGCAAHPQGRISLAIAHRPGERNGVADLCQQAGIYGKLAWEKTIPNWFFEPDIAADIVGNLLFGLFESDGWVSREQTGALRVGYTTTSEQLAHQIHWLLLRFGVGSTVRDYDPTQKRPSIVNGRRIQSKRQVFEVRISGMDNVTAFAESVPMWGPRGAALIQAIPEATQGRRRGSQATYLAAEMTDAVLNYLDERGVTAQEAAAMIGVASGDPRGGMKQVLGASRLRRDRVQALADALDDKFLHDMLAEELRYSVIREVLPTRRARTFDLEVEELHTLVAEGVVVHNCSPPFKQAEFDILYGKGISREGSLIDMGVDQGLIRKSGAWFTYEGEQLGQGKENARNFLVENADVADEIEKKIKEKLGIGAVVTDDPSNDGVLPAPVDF
In words: Fluorescence Cell-Free Homogeneous Dose Retest to Identify Inhibitors of RecA-Intein Splicing Activity. [Related pubchem assays (depositor defined):AID2097, AID2223, AID489010, AID492950]. Type of assay: functional.

Assay [12] has as its target T4, Histone-lysine N-methyltransferase NSD2 (Homo sapiens, UniProt O96028).
T4 sequence (O96028 whole entry): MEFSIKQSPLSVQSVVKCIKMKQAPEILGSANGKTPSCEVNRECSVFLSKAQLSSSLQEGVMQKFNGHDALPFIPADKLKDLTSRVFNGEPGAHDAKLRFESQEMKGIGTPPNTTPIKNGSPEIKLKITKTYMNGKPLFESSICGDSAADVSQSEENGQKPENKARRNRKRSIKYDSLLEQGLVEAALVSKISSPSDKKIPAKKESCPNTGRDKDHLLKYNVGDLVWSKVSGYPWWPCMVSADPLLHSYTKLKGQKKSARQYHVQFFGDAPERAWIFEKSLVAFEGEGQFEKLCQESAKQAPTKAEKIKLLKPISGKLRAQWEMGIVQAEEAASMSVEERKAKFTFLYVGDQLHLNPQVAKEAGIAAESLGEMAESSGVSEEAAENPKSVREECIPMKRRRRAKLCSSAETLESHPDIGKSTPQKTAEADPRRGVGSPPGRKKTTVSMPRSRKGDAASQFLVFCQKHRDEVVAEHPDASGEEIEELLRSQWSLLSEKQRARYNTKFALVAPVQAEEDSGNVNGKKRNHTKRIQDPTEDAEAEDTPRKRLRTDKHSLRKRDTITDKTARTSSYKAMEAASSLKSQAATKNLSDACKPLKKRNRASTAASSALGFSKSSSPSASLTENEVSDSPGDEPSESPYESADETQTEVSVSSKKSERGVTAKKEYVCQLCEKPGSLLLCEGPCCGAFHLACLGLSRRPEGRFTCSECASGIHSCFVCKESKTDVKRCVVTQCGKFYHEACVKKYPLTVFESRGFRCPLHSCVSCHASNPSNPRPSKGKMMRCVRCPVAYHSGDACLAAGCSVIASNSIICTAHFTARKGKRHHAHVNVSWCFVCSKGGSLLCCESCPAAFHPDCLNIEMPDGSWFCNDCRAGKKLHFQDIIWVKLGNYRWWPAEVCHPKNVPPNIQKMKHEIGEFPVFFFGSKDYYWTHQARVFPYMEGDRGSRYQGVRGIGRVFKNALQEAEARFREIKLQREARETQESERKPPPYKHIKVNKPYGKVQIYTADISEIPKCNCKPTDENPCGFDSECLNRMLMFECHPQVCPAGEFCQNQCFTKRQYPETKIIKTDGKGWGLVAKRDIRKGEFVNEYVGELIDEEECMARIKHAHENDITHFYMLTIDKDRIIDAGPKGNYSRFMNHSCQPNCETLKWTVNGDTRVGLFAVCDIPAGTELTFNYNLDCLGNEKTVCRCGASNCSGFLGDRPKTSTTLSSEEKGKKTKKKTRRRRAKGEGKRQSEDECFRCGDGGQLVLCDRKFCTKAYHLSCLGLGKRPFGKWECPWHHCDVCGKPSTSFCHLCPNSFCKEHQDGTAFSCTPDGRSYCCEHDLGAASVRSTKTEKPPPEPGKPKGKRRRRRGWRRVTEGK
The format is biochemical.

The target of assay [13] is T5, Heat shock factor protein 1 (Mus musculus, UniProt P38532).
T5 sequence (P38532 whole entry): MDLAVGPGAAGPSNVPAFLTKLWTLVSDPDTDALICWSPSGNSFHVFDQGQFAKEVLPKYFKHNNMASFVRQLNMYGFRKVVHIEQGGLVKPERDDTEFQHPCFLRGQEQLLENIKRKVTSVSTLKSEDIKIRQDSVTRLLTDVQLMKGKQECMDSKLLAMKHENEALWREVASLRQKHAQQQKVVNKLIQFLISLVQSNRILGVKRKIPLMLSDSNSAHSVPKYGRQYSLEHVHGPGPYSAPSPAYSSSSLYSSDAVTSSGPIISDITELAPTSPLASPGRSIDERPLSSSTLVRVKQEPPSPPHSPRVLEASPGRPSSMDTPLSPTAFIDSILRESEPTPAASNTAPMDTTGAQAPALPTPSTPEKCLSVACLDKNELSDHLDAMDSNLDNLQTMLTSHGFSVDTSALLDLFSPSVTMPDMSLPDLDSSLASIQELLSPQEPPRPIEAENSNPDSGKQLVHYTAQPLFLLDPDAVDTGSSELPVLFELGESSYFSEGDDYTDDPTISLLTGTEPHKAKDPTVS
In words: enhancement of HSF1-driven luciferase signal – cell-based, NIH3T3, luminescence, dose retest, confirmation (AID 435004).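 Also: stress induced by proteasome inhibitor MG132 added 30 min after compound; luciferase reporter driven by HSF1 response element in NIH3T3 cells; actives raise luminescence as potentiators of the MG132 stress response.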 Type of assay: functional.

The target in assay [14] is T6, Replicative DNA helicase DnaB (Mycobacterium tuberculosis, UniProt P9WMR3).
T6 sequence (P9WMR3 whole entry): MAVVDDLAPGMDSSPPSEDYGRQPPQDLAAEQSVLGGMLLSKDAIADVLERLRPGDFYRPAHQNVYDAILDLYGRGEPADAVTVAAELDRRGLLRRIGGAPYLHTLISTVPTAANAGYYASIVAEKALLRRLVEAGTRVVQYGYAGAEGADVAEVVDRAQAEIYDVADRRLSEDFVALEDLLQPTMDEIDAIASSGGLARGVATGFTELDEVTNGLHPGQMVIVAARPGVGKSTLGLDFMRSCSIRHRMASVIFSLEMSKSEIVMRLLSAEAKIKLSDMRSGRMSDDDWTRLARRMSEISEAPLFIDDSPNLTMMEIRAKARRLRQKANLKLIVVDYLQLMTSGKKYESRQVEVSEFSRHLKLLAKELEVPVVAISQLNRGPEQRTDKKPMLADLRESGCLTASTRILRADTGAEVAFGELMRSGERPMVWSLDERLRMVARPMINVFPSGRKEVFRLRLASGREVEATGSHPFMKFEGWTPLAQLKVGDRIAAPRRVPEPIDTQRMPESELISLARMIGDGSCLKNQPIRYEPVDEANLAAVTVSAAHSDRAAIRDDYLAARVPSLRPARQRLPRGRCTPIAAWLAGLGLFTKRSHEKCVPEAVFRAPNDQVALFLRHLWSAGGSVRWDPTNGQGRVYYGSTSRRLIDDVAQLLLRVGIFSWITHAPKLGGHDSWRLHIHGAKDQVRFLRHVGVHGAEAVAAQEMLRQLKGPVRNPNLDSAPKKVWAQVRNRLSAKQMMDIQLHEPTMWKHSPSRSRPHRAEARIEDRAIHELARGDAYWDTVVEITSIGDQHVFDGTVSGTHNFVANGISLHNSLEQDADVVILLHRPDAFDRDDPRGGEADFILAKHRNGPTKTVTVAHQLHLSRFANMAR
The experiment in a line: DnaB intein splicing inhibitors, dose response, biochemical, cell-free fluorescence (AID 449749). Type of assay: functional.
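For CC50 in this document: cells exposed to compound for 72 hours before luminescence readout.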
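For IC50 Mean in this document: confirmatory dose-response retesting of NadD inhibitor hits first found in an ultra-high-throughput screen.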

T1 sequence (P65502 whole entry, the tested form may be a part): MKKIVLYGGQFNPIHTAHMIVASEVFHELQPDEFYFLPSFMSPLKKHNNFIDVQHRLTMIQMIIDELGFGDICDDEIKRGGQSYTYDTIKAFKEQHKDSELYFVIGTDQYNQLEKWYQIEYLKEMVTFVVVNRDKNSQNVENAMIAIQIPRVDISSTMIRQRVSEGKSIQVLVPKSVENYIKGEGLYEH

On to `COc1ccc(-c2cc(C(=O)NNC(=S)NC(=O)c3c(-c4ccccc4)noc3C)[nH]n2)cc1`, for which the AC50 was 12 µM (active) in assay [1]; 2.61 µM (active) in [2]; 4.51 µM (active) in [4]; > 70 µM (inactive) in assay [5]; 2.1 µM (active) in assay [7]. For the same molecule, the IC50 in assay [3] is 26.1 µM (active); in assay [6], 6.51 µM (active). For the same molecule, the EC50 is 3.62 µM (active) on Hexokinase HKDC1; > 80 µM (inactive) at Hexokinase-1; 0.263 µM (active) in assay [8]; > 38 µM (not active) in [9]; 53.9 µM (active) in assay [10]; 4.58 µM (active) in the assay with Streptococcus.

In the case of `CN(C1=C(NC(=O)c2ccccc2)C(=O)c2ccccc2C1=O)C1CCS(=O)(=O)C1` (centres undefined), the figures for the AC50 (with INS1; in [12]; in [14]) were 3 µM (active), 4.69 µM (active) and 1.7 µM (active), respectively. The CC50 in assay [11] is 19.2 µM (active). Further, the values for the EC50 (at Protein RecA; in assay [13]) were 0.108 µM (active) and 30.9 µM (active), respectively.
